Where two headings read alike, the source gives them in different places.
Assays:
Pityrosporum ovalae = experiment: minimum inhibitory doses (M.I.C.) for Pityrosporum ovalae; format: cell-based
Description: (§1) Undecylenamidopropylbetaine (Amphoram®U from CECA S.A.) was compared with piroctone olamine (CFTA) or 1-hydroxy-4-methyl-6-(2,4,4-trimethylpentyl)-2(1H)pyridone; ethanol (1:1) salt (RN=68890-66-4), taken in its commercial form as Octopyrox® (Hoechst), at the minimum inhibitory doses (M.I.C.) for Pityrosporum ovalae, i.e., respectively, 2% and 0.2% beforehand.

dandruff = experiment: antidandruff efficacy test over 15 days on a Test Panel of 20 individuals; format: in vivo; conditions: for Area occupied by dandruff, percentage of variations on D15 relative to D1 / Dandruff removal index, percentage of variations on D15 relative to D1: products at their M.I.C. (2% and 0.2%)
Description: as §1

[1] = sebumetry index measured with the Courage-Khazka sebumeter, Test Panel of 20 individuals; conditions: 15 days
[2] = background statement; cited from earlier work
[3] = in vivo

Molecule | minimum inhibitory doses (M.I.C.) for Pityrosporum ovalae (Pityrosporum ovalae) [%] | state of dandruff (decrease in the area occupied and increase in the dandruff removal index) (dandruff) | Area occupied by dandruff, percentage of variations on D15 relative to D1 (dandruff) [%] | Dandruff removal index, percentage of variations on D15 relative to D1 (dandruff) [%] | Sebumetry index, percentage of variation on D15 relative to D1 [1] [%] | solubility in water [2] | Sebumetry index, percentage of variation on D15 relative to D1 [3] [%]
CCO.Cc1cc(CC(C)CC(C)(C)C)n(O)c(=O)c1 (stereo not drawn) [Octopyrox, 1-hydroxy-4-methyl-6-(2,4,4-trimethylpentyl)-2(1H)pyridone; ethanol (1:1) salt] | 0.2 | remained stable | −7 | −5 | −4 | – | –
CC(C)(C)C(=O)C(Oc1ccc(Cl)cc1)n1ccnc1 (stereo not drawn) [climbazole] | – | – | – | – | – | water-insoluble | –
zinc pyrithione | – | – | – | – | – | water-insoluble | –
N-(carboxymethyl)-N,N-dimethyl-3-[(1-oxoundecenyl)amino]-1-propanaminium hydroxide [Amphoram U] | 2 | 30 to 40% | −29 | −36 | – | – | −7
